A short description of data set [1]: Metabolic stability in dog hepatocytes assessed as clearance at 10 uM measured upto 120 mins by LC-MS/MS analysis. The class given is ADME, cell-based, Canis lupus familiaris, Hepatocyte. Particulars: 2 h.
The nature of data set [2]: Plasma protein binding in human after 15 mins by equilibrium dialysis method. In kind it is ADME, cell-free. Particulars: read-out: PPB (converted).
For data set [3], the target named is Potassium voltage-gated channel subfamily A member 5 (Homo sapiens, UniProt P22460). Put plainly: Inhibition of Kv1.5 (unknown origin) by patch clamp method.

Results on 1 compound are retold here after ChEMBL document CHEMBL5131569, “SAGE-718: A First-in-Class N-Methyl-d-Aspartate Receptor Positive Allosteric Modulator for the Potential Treatment of Cognitive Impairment” (J Med Chem, 2022).

Potassium voltage-gated channel subfamily A member 5, sequence (P22460 whole entry): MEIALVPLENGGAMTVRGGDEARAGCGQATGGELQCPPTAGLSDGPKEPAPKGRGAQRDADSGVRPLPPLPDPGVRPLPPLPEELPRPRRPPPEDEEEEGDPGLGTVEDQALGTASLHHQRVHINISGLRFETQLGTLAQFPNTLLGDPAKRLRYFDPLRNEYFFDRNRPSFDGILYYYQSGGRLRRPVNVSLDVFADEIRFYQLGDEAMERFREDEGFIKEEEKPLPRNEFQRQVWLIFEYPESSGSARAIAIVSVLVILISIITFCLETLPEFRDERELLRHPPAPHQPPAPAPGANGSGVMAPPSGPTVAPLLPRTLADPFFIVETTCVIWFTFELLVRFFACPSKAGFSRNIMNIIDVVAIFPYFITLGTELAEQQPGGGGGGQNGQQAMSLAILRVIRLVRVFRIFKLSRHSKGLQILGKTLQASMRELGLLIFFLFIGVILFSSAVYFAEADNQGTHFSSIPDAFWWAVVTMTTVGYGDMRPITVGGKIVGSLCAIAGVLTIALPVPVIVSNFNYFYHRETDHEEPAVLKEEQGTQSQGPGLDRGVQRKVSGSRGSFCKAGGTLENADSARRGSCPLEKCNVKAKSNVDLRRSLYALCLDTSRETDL

Consider `C[C@H](CC[C@](C)(O)C(F)(F)F)[C@H]1CC[C@H]2[C@@H]3CC=C4C[C@@](C)(O)CC[C@]4(C)[C@H]3CC[C@]12C` [DALZANEMDOR], for which, in data set [1], the CLH stood at 15 mL/min/kg. Besides, the fraction unbound at 0.25 h in data set [2] was 0.015. In data set [3], this compound yielded an IC50 of over 30 µM.
